Data from patent US20170247366A1, “SUBSTITUTED 4-ALKOXYPICOLINAMIDE ANALOGS AS MGLUR5 NEGATIVE ALLOSTERIC MODULATORS AND METHODS OF MAKING AND USING THE SAME” (VANDERBILT UNIVERSITY, priority 2014, published 2017).

Target: T1, rat mGluR5 (Rattus norvegicus, UniProt P31424)
T1 construct: expressed in transfected cells
Assay: mGluR5 calcium flux assay in HEK 293A cells, negative allosteric modulation of glutamate EC80 response
Assay type: cell-based
Details: HEK cells transfected with rat mGluR5; glutamate EC80; ± is standard error of at least three experiments
Method: HEK 293A cells stably expressing either rat or human mGluR5 were plated in black-walled, clear-bottomed, poly-D-lysine coated 384-well plates in 20 μL of assay medium (DMEM containing 10% dialyzed FBS, 20 mM HEPES, 100 units/mL penicillin/streptomycin plus 250 ng/mL Fungizone, and 1 mM sodium pyruvate) at a density of 20K cells/well. The cells were grown overnight at 37° C. in the presence of 5% CO2. The next day, medium was removed and the cells incubated with 20 μL of 2.3 µM Fluo-4, AM prepared as a 2.3 mM stock in DMSO and mixed in a 1:1 ratio with 10% (w/v) pluronic acid F-127 and diluted in assay buffer (Hank's balanced salt solution, 20 mM HEPES, and 2.5 mM probenecid) for 45 minutes at 37° C. Dye was removed, 20 μL of assay buffer was added, and the plate was incubated for 5 minutes at room temperature.
Ca^2+ flux was measured using the Functional Drug Screening System (FDSS7000, Hamamatsu, Japan). After establishment of a fluorescence baseline for about 3 seconds, the compounds of the present invention were added to the cells, and the response in cells was measured. 2.3 minutes later an EC20 concentration of the mGluR5 receptor agonist glutamate was added to the cells, and the response of the cells was measured for 1.9 minutes; an EC80 concentration of agonist was added and readings taken for an additional 1.7 minutes. All test compounds were dissolved and diluted to a concentration of 10 mM in 100% DMSO. Compounds were then serially diluted 1:3 in DMSO into 10 point concentration response curves, transferred to daughter plates, and further diluted into assay buffer to a 2× stock. Calcium fluorescence measures were recorded as fold over basal fluorescence; raw data was then normalized to the maximal response to glutamate. Antagonism of the agonist response of the mGluR5 receptor in the present invention was observed as a decrease in response to nearly maximal concentrations of glutamate in the presence of compound compared to the response to glutamate in the absence of compound.
The raw data file containing all time points was used as the data source in the analysis template. This was saved by the FDSS as a tab-delimited text file. Data were normalized using a static ratio function (F/F0) for each measurement of the total 360 values per well divided by each well's initial value. Data were then reduced to peak amplitudes (Max−Initial Min) using a time range that starts approximately 3 seconds prior to the glutamate EC20/EC80 addition and continues for approximately 90-120 seconds. This is sufficient time to capture the peak amplitude of the cellular calcium response. Individual amplitudes were expressed as % EMax by multiplying each amplitude by 100 and then dividing the product by the mean of the amplitudes derived from the glutamate ECMax-treated wells. IC50 values for test compounds were generated by fitting the normalized values versus the log of the test compound concentration (in mol/L) using a 4 parameter logistic equation where none of the parameters were fixed. Each of the three values collected at each concentration of test compound were weighted evenly.
For NAMs with a CRC that plateaus above 10% Glu Max, the IC50 values are reported, the compound is designated a “partial NAM” and the % Glu Max is reported. […] Compounds without measurable activity are designated as “>30,000 nM” since the top concentration of compound tested in the assay is 30 µM. Exemplary data are provided in Tables 1 and 2 below.
Table 1 below lists specific compounds, experimentally determined molecular mass, and mGluR5 activity determined in a cell-based assay. The mGluR5 activity was determined using the metabotropic glutamate receptor activity assays in human embryonic kidney cells as described herein, wherein the human embryonic kidney cells were transfected with rat mGluR5. The mGluR5 activity data for some compounds are shown as the average of at least three experiments with the standard error in these cases. […]

T1 sequence (P31424 21-1203): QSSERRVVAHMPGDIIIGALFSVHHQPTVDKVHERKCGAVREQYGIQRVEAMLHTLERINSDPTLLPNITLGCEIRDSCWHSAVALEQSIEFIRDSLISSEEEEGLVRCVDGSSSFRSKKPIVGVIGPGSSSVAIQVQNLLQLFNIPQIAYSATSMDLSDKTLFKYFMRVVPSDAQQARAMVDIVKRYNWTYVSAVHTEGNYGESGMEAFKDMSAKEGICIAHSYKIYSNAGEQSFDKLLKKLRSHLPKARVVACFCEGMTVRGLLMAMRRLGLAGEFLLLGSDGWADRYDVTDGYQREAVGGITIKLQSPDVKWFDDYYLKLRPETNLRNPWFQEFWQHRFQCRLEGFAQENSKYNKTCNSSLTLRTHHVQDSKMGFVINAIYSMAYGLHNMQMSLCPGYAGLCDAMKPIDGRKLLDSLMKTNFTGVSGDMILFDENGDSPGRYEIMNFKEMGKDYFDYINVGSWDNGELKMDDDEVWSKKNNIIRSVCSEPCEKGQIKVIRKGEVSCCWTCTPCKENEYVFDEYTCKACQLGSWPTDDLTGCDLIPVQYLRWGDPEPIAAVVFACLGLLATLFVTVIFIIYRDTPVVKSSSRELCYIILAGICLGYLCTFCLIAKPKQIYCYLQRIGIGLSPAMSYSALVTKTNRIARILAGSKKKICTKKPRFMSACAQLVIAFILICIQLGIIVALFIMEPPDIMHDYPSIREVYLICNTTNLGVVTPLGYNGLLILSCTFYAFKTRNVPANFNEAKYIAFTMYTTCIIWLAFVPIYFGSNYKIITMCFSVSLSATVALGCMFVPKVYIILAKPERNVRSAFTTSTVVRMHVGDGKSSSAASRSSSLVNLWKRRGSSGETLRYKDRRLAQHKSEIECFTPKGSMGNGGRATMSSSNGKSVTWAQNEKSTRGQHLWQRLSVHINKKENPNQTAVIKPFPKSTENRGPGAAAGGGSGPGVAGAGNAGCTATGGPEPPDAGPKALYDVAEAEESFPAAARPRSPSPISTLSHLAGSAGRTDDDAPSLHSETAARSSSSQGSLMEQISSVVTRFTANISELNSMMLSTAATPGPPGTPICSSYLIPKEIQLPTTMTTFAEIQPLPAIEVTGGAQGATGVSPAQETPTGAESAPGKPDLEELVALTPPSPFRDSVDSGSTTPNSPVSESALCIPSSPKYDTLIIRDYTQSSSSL

SMILES | IC50
Cc1cc(OC2CCC2)cc(C(=O)Nc2ccccn2)n1 | 43 nM
Cc1cc(OC2CCC2)cc(C(=O)Nc2nc(C)cs2)n1 | 59 ± 7 nM
Cc1cc(OC2COC2)cc(C(=O)Nc2ccc(F)cn2)n1 | 212 ± 8 nM
Cc1cc(O[C@@H]2CCOC2)cc(C(=O)Nc2ccccn2)n1 | 23 nM
Cc1cc(O[C@@H]2CCOC2)cc(C(=O)Nc2nc(C)cs2)n1 | 42 ± 9 nM
Cc1cc(O[C@H]2CCOC2)cc(C(=O)Nc2ccccn2)n1 | 194 nM
Cc1cc(O[C@H]2CCOC2)cc(C(=O)Nc2ccc(F)cn2)n1 | 685 ± 51 nM
Cc1cc(O[C@H]2CCOC2)cc(C(=O)Nc2nc(C)cs2)n1 | 133 ± 14 nM
Cc1cc(OC2CCCCC2)cc(C(=O)Nc2ccc(F)cn2)n1 | 3350 nM
Cc1cc(OC2CCCOC2)cc(C(=O)Nc2ccccn2)n1 (stereo not shown) | 224 nM
Cc1cc(OC2CCCOC2)cc(C(=O)Nc2nc(C)cs2)n1 (stereo not shown) | 140 nM
Cc1cc(O[C@@H]2CCCOC2)cc(C(=O)Nc2ccc(F)cn2)n1 | 353 ± 83 nM
Cc1cc(O[C@H]2CCCOC2)cc(C(=O)Nc2ccccn2)n1 | 75 nM
Cc1cc(OC2CCCCC2)cc(C(=O)Nc2ccccn2)n1 | 1420 nM
Cc1cc(OC2CCCCC2)cc(C(=O)Nc2nc(C)cs2)n1 | 2100 nM
Cc1cc(OC2CCCOC2)cc(C(=O)Nc2ccc(F)cn2)n1 (stereo not shown) | 497 nM
Cc1cc(O[C@@H]2CCCOC2)cc(C(=O)Nc2ccccn2)n1 | 101 nM
Cc1cc(O[C@@H]2CCCOC2)cc(C(=O)Nc2nc(C)cs2)n1 | 70 ± 11 nM
Cc1cc(O[C@H]2CCCOC2)cc(C(=O)Nc2ccc(F)cn2)n1 | 264 ± 47 nM
Cc1cc(O[C@H]2CCCOC2)cc(C(=O)Nc2nc(C)cs2)n1 | 91 ± 3 nM
Cc1cc(OC2CCOCC2)cc(C(=O)Nc2ccccn2)n1 | 1560 nM
Cc1cc(OCC2CCO2)cc(C(=O)Nc2ccccn2)n1 (stereo not shown) | 646 nM

SMILES | IC50
Cc1cc(OCC2CCO2)cc(C(=O)Nc2nc(C)cs2)n1 (stereo not shown) | 399 nM
Cc1cc(OCC2COC2)cc(C(=O)Nc2ccc(F)cn2)n1 | 4300 nM
Cc1cc(OCC2CCCO2)cc(C(=O)Nc2ccccn2)n1 (stereo not shown) | 725 nM
Cc1cc(OCC2CCCO2)cc(C(=O)Nc2nc(C)cs2)n1 (stereo not shown) | 273 nM
Cc1cc(OC2CCOCC2)cc(C(=O)Nc2nc(C)cs2)n1 | 446 nM
Cc1cc(OCC2CCO2)cc(C(=O)Nc2ccc(F)cn2)n1 (stereo not shown) | 2480 nM
Cc1cc(OCC2COC2)cc(C(=O)Nc2ccccn2)n1 | 392 nM
Cc1cc(OCC2COC2)cc(C(=O)Nc2nc(C)cs2)n1 | 143 ± 32 nM
Cc1cc(OCC2CCCO2)cc(C(=O)Nc2ccc(F)cn2)n1 (stereo not shown) | 2330 nM
Cc1cc(OCC2CCOC2)cc(C(=O)Nc2ccccn2)n1 (stereo not shown) | 210 nM
Cc1cc(OCC2CCOC2)cc(C(=O)Nc2ccc(F)cn2)n1 (stereo not shown) | 701 nM
Cc1cc(OCC2CCOC2)cc(C(=O)Nc2nc(C)cs2)n1 (stereo not shown) | 200 nM
Cc1cc(OC[C@@H]2CCOC2)cc(C(=O)Nc2ccccn2)n1 | 166 nM
Cc1cc(OC[C@@H]2CCOC2)cc(C(=O)Nc2nc(C)cs2)n1 | 151 ± 38 nM
Cc1cc(OC[C@H]2CCOC2)cc(C(=O)Nc2ccc(F)cn2)n1 | 4890 nM
COCCOc1cc(C)nc(C(=O)Nc2ccccn2)c1 | 120 nM
COCCOc1cc(C)nc(C(=O)Nc2nc(C)cs2)c1 | 82 ± 12 nM
Cc1cc(OC2COC2)cc(C(=O)Nc2cccc(F)n2)n1 | 201 nM
Cc1cc(OC2C[S+]([O-])C2)cc(C(=O)Nc2nc(C)cs2)n1 (stereo not shown) | 180 nM
Cc1cc(OC2CS(=O)(=O)C2)cc(C(=O)Nc2nc(C)cs2)n1 | 392 nM
CCC(=O)N1CC(Oc2cc(C)nc(C(=O)Nc3nc(C)cs3)c2)C1 | 611 nM
CCC(=O)N1CC(Oc2cc(C)nc(C(=O)Nc3ccc(F)cn3)c2)C1 | 3400 nM

SMILES | IC50
Cc1cc(OC2CN(C(=O)CC(C)C)C2)cc(C(=O)Nc2ccc(F)cn2)n1 | 4330 nM
CCOC(=O)N1CC(Oc2cc(C)nc(C(=O)Nc3nc(C)cs3)c2)C1 | 862 nM
COC(=O)N1CC(Oc2cc(C)nc(C(=O)Nc3ccc(F)cn3)c2)C1 | 1570 nM
Cc1cc(OC2CN(C(=O)OC(C)C)C2)cc(C(=O)Nc2ccc(F)cn2)n1 | 4100 nM
CCCCOC(=O)N1CC(Oc2cc(C)nc(C(=O)Nc3ccc(F)cn3)c2)C1 | 11200 nM
Cc1cc(OC2CN(S(C)(=O)=O)C2)cc(C(=O)Nc2nc(C)cs2)n1 | 504 nM
COC(=O)N1CC(Oc2cc(C)nc(C(=O)Nc3nc(C)cs3)c2)C1 | 686 nM
Cc1cc(OC2CN(C(=O)OC(C)C)C2)cc(C(=O)Nc2nc(C)cs2)n1 | 2510 nM
CCOC(=O)N1CC(Oc2cc(C)nc(C(=O)Nc3ccc(F)cn3)c2)C1 | 3340 nM
CCCOC(=O)N1CC(Oc2cc(C)nc(C(=O)Nc3ccc(F)cn3)c2)C1 | > 10000 nM
Cc1cc(OC2CN(C(=O)OCC(C)C)C2)cc(C(=O)Nc2ccc(F)cn2)n1 | > 30000 nM
CCS(=O)(=O)N1CC(Oc2cc(C)nc(C(=O)Nc3nc(C)cs3)c2)C1 | 1270 nM
CCCS(=O)(=O)N1CC(Oc2cc(C)nc(C(=O)Nc3nc(C)cs3)c2)C1 | 789 nM
Cc1cc(OC2CN(S(=O)(=O)CC(C)C)C2)cc(C(=O)Nc2nc(C)cs2)n1 | > 10000 nM
CCCS(=O)(=O)N1CC(Oc2cc(C)nc(C(=O)Nc3ccc(F)cn3)c2)C1 | > 10000 nM
Cc1cc(OC2CN(S(=O)(=O)CC(C)C)C2)cc(C(=O)Nc2ccc(F)cn2)n1 | > 30000 nM
Cc1cc(OC2CN(C(=O)N(C)C)C2)cc(C(=O)Nc2ccc(F)cn2)n1 | > 10000 nM
Cc1cc(OC2CN(S(=O)(=O)C(C)C)C2)cc(C(=O)Nc2nc(C)cs2)n1 | 3620 nM
CCS(=O)(=O)N1CC(Oc2cc(C)nc(C(=O)Nc3ccc(F)cn3)c2)C1 | > 10000 nM
Cc1cc(OC2CN(S(=O)(=O)C(C)C)C2)cc(C(=O)Nc2ccc(F)cn2)n1 | 3980 nM
Cc1cc(OC2CN(C(=O)N(C)C)C2)cc(C(=O)Nc2nc(C)cs2)n1 | > 10000 nM

Same assay, conditions: rat mGluR5; CRC plateaus above 10% Glu Max

SMILES | NAM designation
Cc1cc(OC2CN(C(=O)OC(C)C)C2)cc(C(=O)Nc2ccc(F)cn2)n1 | Partial NAM
Cc1cc(OC2CN(S(=O)(=O)C(C)C)C2)cc(C(=O)Nc2ccc(F)cn2)n1 | Partial NAM

Same assay, conditions: rat mGluR5; average Glu Max at 30 μM; CRC does not hit a plateau

SMILES | % Glu Max at single concentration
CCCOC(=O)N1CC(Oc2cc(C)nc(C(=O)Nc3ccc(F)cn3)c2)C1 | 37%
Cc1cc(OC2CN(S(=O)(=O)CC(C)C)C2)cc(C(=O)Nc2nc(C)cs2)n1 | 59%
CCCS(=O)(=O)N1CC(Oc2cc(C)nc(C(=O)Nc3ccc(F)cn3)c2)C1 | 53%
Cc1cc(OC2CN(C(=O)N(C)C)C2)cc(C(=O)Nc2ccc(F)cn2)n1 | 69%
CCS(=O)(=O)N1CC(Oc2cc(C)nc(C(=O)Nc3ccc(F)cn3)c2)C1 | 62%
Cc1cc(OC2CN(C(=O)N(C)C)C2)cc(C(=O)Nc2nc(C)cs2)n1 | 31%

Same assay, conditions: rat mGluR5; response in presence of compound as percentage of maximal glutamate response; CRC plateaus above 10%

SMILES | % Glu Max (partial NAM, plateau of CRC)
Cc1cc(OC2CN(C(=O)OC(C)C)C2)cc(C(=O)Nc2ccc(F)cn2)n1 | 42%
Cc1cc(OC2CN(S(=O)(=O)C(C)C)C2)cc(C(=O)Nc2ccc(F)cn2)n1 | 58%

System: marble burying in mice
Assay: not given
Details: cited from earlier work

SMILES | Efficacy in marble burying model
CN1CC(=O)N=C1NC(=O)Nc1cccc(Cl)c1 [fenobam, 1-(3-chlorophenyl)-3-(1-methyl-4-oxo-4,5-dihydro-1H-imidazol-2-yl)urea] | effective
